ChEMBL document CHEMBL1795217, “New vasorelaxant indole alkaloids, villocarines A-D from Uncaria villosa” (Bioorg Med Chem, 2011)
Calls of active or inactive are those of the source.

Assays:
[1] = test system: Aorta; assay: Vasorelaxant activity in Wistar rat thoracic aortic rings with endothelium assessed as inhibition of phenylephrine-induced contraction at 30 uM measured 10 to 30 mins within compound dosing; type: functional, tissue-based
[2] = test system: Aorta; assay: Vasorelaxant activity in endothelium denuded Wistar rat thoracic aortic rings assessed as inhibition of phenylephrine-induced contraction at 30 uM in presence of Ca2+-free medium pre-incubated with 1 uM phenylephrine abd 1 uM nicardipine
[3] = test system: Aorta; assay: Vasorelaxant activity in endothelium denuded Wistar rat thoracic aortic rings assessed as inhibition of phenylephrine-induced contraction at 30 uM; type: functional, tissue-based
[4] = test system: Aorta; assay: Vasorelaxant activity in endothelium denuded Wistar rat thoracic aortic rings assessed as inhibition of calcium-induced contraction at 30 uM in presence of Ca2+-free K+-rich medium; type: functional, tissue-based

Measured: Activity

C/C=C1/CN2CCc3c([nH]c4ccccc34)[C@H]2C[C@@H]1/C(=C\OC)C(=O)OC
active: all assays above
